Tests used:
[1] = Self-assembly in water; assay type: physicochemical; details: for diameter (width) of self-assembled nanofibers: TEM, pH 7.0, 2.0 wt %, direct self-assembly without enzyme; for appearance / state in water: pH 7.0, 2.0 wt % concentration, optical image, for 2 via pH adjustment
[2] = target: T1, CD73 (Homo sapiens, UniProt P21589)
T1 sequence (P21589 27-574): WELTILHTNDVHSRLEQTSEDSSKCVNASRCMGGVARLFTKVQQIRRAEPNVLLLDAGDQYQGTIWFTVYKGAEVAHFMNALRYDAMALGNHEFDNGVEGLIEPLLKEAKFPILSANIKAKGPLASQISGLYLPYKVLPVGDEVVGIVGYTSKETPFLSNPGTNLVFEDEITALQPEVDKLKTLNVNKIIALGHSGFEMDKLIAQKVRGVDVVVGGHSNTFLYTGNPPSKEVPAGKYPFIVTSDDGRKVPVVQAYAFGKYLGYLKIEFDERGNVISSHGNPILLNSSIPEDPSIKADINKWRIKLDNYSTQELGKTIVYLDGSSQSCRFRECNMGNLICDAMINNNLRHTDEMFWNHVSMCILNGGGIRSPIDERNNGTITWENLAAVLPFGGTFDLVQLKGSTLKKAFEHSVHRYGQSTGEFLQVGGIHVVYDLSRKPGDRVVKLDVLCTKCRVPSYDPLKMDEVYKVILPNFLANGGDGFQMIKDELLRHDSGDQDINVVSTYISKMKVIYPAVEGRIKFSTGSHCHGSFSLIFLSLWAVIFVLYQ

| Structure (SMILES) | diameter (width) of self-assembled nanofibers [1] | appearance / state in water [1] | hydrogel formation on adding CD73 ([2]; 1 μg of CD73 added to 0.5 mL of 2 wt % solution, 37 °C, pH 7.0) | diameter of nanofibers of the CD73-formed hydrogel ([2]; TEM, after CD73 treatment, pH 7.0, 2.0 wt %) |
| --- | --- | --- | --- | --- |
| O=C(Cc1ccc2ccccc2c1)N[C@H](Cc1ccccc1)C(=O)N[C@H](Cc1ccccc1)C(=O)N[C@H](CCCCNc1ncnc2c1ncn2[C@@H]1O[C@H](COP(=O)(O)O)[C@@H](O)[C@H]1O)C(=O)O [compound 1, naphthalene-D-Phe-D-Phe-D-Lys(AMP)] | 8 ± 1 nm | transparent solution | hydrogel formation after three days | 8 ± 1 nm |
| O=C(Cc1ccc2ccccc2c1)N[C@H](Cc1ccccc1)C(=O)N[C@H](Cc1ccccc1)C(=O)N[C@H](CCCCNc1ncnc2c1ncn2[C@@H]1O[C@H](CO)[C@@H](O)[C@H]1O)C(=O)O [compound 2, naphthalene-D-Phe-D-Phe-D-Lys(adenosine)] | 5 ± 1 nm | transparent hydrogel | – | – |

Source: article PMC4369398 (Journal of colloid and interface science, 2014)
